Here are results for 63 compounds from PubChem BioAssay AID977605 (Broad Institute, 2014).

The source made the active and inactive calls.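 Rule for the calls: active = fitted curve reaches 40% activation below the top valid tested dose, in every test run; inconclusive = test runs disagree on the call; inactive = the rest, including effects opposite to the expected direction.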

A short description of one assay: endothelial E-selectin upregulation by compounds – imaging, HUVEC, cherry-picked samples, dose response (AID 977605).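 Note: signal is the share of imaged cells scored positive for E-selectin.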 The settings on record: HUVEC E-selectin immunostaining, at 18 µM (top of the series), percent of TNF-alpha response over vehicle.
As to `CN1c2ccc(C#Cc3cccnc3)cc2[C@@H]2[C@@H](CCN2C(=O)C2CCC2)[C@H]1CO`, the activation is -0.065% (inactive).

Staying with this assay, now noted: HUVEC E-selectin immunostaining, at 19.5 µM (top of the series).
As for `Cc1ccc(-c2nc3ccccc3c(=O)n2-c2cccc(O)c2)cc1`, the activation was 0.249% (inactive).

Staying with this assay, now noted: HUVEC E-selectin immunostaining, at 19.5 µM (top of the series), percent of TNF-alpha response over vehicle.
`C[C@H]1CN([C@@H](C)CO)C(=O)c2cc(NS(C)(=O)=O)ccc2O[C@@H]1CN(C)Cc1ccc(Cl)c(Cl)c1`: the activation was -0.025% (inactive).

In the case of `CCOC(=O)C1(Cc2ccccc2C)CCCN(C(=O)c2ccnn2C)C1` (stereo not drawn), the activation is -0.138% (inactive).

In the case of `C[C@@H]1CN([C@H](C)CO)C(=O)c2cc(NC(=O)Cn3cnnn3)ccc2O[C@@H]1CN(C)S(=O)(=O)c1ccccc1`, the activation is 0.017% (inactive).

In the case of `Cc1ccc(S(=O)(=O)N2CCOCC2)cc1C(=O)NC1CCCC1`, the activation was -0.154% (inactive).

In the case of `CS(=O)(=O)N1CCc2cc(C(=O)NC3CC3)ccc21`, the activation is 0.099% (inactive).

As to `Cc1noc(C)c1S(=O)(=O)Nc1ccc2c(c1)C(=O)N([C@H](C)CO)C[C@@H](C)[C@H](CN(C)Cc1ccc3c(c1)OCO3)O2`, the activation was -0.134% (inactive).

For `CC(C)NC(=O)N(C)C[C@@H]1Oc2ccc(NC(=O)CCN3CCOCC3)cc2C(=O)N([C@@H](C)CO)C[C@H]1C`, the activation is 0.429% (inactive).

For the compound `C[C@@H]1CN([C@H](C)CO)C(=O)Cc2cc(NS(=O)(=O)c3ccccc3)ccc2O[C@@H]1CN(C)Cc1ccc(C(F)(F)F)cc1`, the activation is 0.93% (inactive).

For `COc1ccc(CN(C)C[C@H]2Oc3ccc(NC(=O)Cn4cnnn4)cc3CC(=O)N([C@@H](C)CO)C[C@@H]2C)cc1`, the activation is -0.061% (inactive).

For the compound `COc1ccc(S(=O)(=O)N(C)C[C@@H]2Oc3c(NS(=O)(=O)c4ccc(F)cc4)cccc3C(=O)N([C@H](C)CO)C[C@@H]2C)cc1`, the activation was -0.15% (inactive).

With `C[C@H](CO)N1C[C@H](C)[C@@H](CN(C)S(=O)(=O)c2ccccc2)Oc2ccc(NC(=O)Nc3ccc(C(F)(F)F)cc3)cc2C1=O`, the activation was 0.863% (inactive).

Turning to `O=S(=O)(NCc1cccnc1)c1ccc(Cl)c2ccccc12`, the activation was 0.304% (inactive).

As for `CC(C)NC(=O)Nc1ccc2c(c1)C(=O)N([C@@H](C)CO)C[C@H](C)[C@@H](CN(C)Cc1ccc(C(F)(F)F)cc1)O2`, the activation is -0.03% (inactive).

For `COc1ccc(OC)c(NC(=O)c2csc(Cl)c2OC)c1`, the activation is 2.39% (inactive).

As for `C[C@H](CO)N1C[C@H](C)[C@@H](CN(C)Cc2ccc(C(F)(F)F)cc2)Oc2ccc(N(C)C)cc2CC1=O`, the activation was 0.906% (inactive).

For the compound `C[C@H](CO)N1C[C@H](C)[C@@H](CN(C)S(=O)(=O)c2cn(C)cn2)Oc2ccc(NS(=O)(=O)c3ccc(Cl)cc3)cc2C1=O`, the activation was -0.286% (inactive).

For the compound `C[C@@H]1CN([C@H](C)CO)C(=O)c2cccc(NC(=O)Nc3ccc(F)cc3)c2O[C@H]1CN(C)C(=O)NC1CCCCC1`, the activation is 0.496% (inactive).

With `C[C@H](CO)N1C[C@H](C)[C@H](CN(C)CC2CC2)Oc2c(NC(=O)C3CC3)cccc2C1=O`, the activation was -0.037% (inactive).

For `COc1ccc2[nH]c(=O)c(CN(c3ccccc3)S(=O)(=O)c3ccccc3)cc2c1`, the activation is 3% (inactive).

`CC(C)NC(=O)N(C)C[C@H]1Oc2c(NC(=O)c3ccc(-c4nccs4)cc3)cccc2C(=O)N([C@@H](C)CO)C[C@H]1C`: the activation is 2.24% (inactive).

For the compound `C[C@H]1CN([C@@H](C)CO)C(=O)c2cc(N(C)C)ccc2O[C@H]1CN(C)C(=O)Nc1ccc2c(c1)OCO2`, the activation is 2.2% (inactive).

With `CCc1cc(C(=O)Nc2nc(-c3ccccn3)cs2)sc1C`, the activation was 0.665% (inactive).

Turning to `Cc1cc(C)cc(NC(=O)Cc2ccc(NC3=NC4CS(=O)(=O)CC4S3)cc2)c1` (stereo not drawn), the activation is 0.105% (inactive).

In the case of `C[C@@H]1CN([C@H](C)CO)C(=O)Cc2cc(NC(=O)Nc3ccccc3)ccc2O[C@@H]1CN(C)C`, the activation is 4.89% (inactive).

As to `CC(C)NC(=O)Nc1ccc2c(c1)C(=O)N([C@@H](C)CO)C[C@@H](C)[C@H](CN(C)Cc1ccc(C(=O)O)cc1)O2`, the activation was -0.098% (inactive).

On to `O=S(=O)(Nc1cccc2[nH]ncc12)c1cccs1`, for which the activation was -0.069% (inactive).

Consider `C[C@H](CO)N1C[C@H](C)[C@@H](CN(C)C)Oc2ccc(NC(=O)CCCN(C)C)cc2CC1=O`, for which the activation was -0.172% (inactive).

`Cc1ccccc1CN1CCN(S(=O)(=O)c2ccc(Cl)s2)CC1`: the activation was 0.152% (inactive).

With `CC(C)N(CCC#N)C(=O)Nc1ccc2c(c1)CCO2`, the activation is -0.194% (inactive).

Regarding `CC1CCN(c2nc3c(=O)[nH]c(N)nc3n2[C@@H]2O[C@H](CO)[C@@H](O)[C@H]2O)CC1`, the activation was 0.131% (inactive).

`Cc1noc(C)c1NC(=O)Nc1cccc2c1O[C@@H](CN(C)Cc1ccc(C(F)(F)F)cc1)[C@H](C)CN([C@@H](C)CO)C2=O`: the activation was 0.145% (inactive).

As to `C[C@@H]1CN([C@@H](C)CO)C(=O)c2cc(NC(=O)NC3CCCCC3)ccc2O[C@@H]1CN(C)S(=O)(=O)c1ccc(Cl)cc1`, the activation was -0.037% (inactive).

On to `COc1ccc(CN(C)C[C@@H]2Oc3ccc(NC(=O)Nc4ccc(F)cc4)cc3CC(=O)N([C@@H](C)CO)C[C@@H]2C)cc1`, for which the activation is 0.025% (inactive).

For `CNC(=O)C[C@H]1CC[C@H]2[C@@H](COc3ccc(NC(=O)c4cccc(F)c4)cc3C(=O)N2C)O1`, the activation was 1.5% (inactive).

On to `Cc1cccc(NS(=O)(=O)c2ccc(S(=O)(=O)N3CCCC3)cc2)c1`, for which the activation is 1.83% (inactive).

For the compound `Cc1noc(C)c1NC(=O)N(C)C[C@H]1Oc2ccc(NC(=O)c3ccncc3)cc2C(=O)N([C@H](C)CO)C[C@@H]1C`, the activation is -0.129% (inactive).

In the case of `COc1ccc(S(=O)(=O)Nc2cccc3c2O[C@H](CN(C)C(=O)Nc2c(C)noc2C)[C@H](C)CN([C@@H](C)CO)C3=O)cc1`, the activation is -0.052% (inactive).

For `C[C@H](CO)N1C[C@H](C)[C@H](CN(C)Cc2ccc3c(c2)OCO3)Oc2ccc(NC(=O)Cn3cnnn3)cc2C1=O`, the activation is 2.56% (inactive).

For `CCOC(=O)[C@]12CCCC=C1N(CCC1=CCCCC1)C(=O)[C@H](CC(=O)NCCC(C)C)C2`, the activation is 7.1% (inactive).

`CC(C)NC(=O)N(C)C[C@@H]1Oc2ccc(NC(=O)Cc3cn(C)c4ccccc34)cc2C(=O)N([C@H](C)CO)C[C@H]1C`: the activation is 0.047% (inactive).

Turning to `C[C@H]1CN([C@@H](C)CO)C(=O)c2cccc(NC(=O)Nc3ccc(F)cc3)c2O[C@H]1CN(C)Cc1ccncc1`, the activation was 0.058% (inactive).

Regarding `O=C1CC(N2CCSCC2)C(=O)N1c1cccc(Br)c1` (stereo not drawn), the activation was -0.085% (inactive).

On to `Cc1c(N(C)C(=O)COc2ccc3ccccc3c2)c(=O)n(-c2ccccc2)n1C`, for which the activation was -0.279% (inactive).

Turning to `C[C@@H]1CN([C@H](C)CO)C(=O)c2cc(NS(C)(=O)=O)ccc2O[C@@H]1CN(C)C(=O)Nc1ccccc1`, the activation is -0.094% (inactive).

In the case of `C[C@H](CO)N1C[C@H](C)[C@H](CN(C)S(=O)(=O)c2ccccc2)Oc2ccc(NC(=O)Nc3ccc(F)cc3)cc2CC1=O`, the activation was 0.322% (inactive).

As for `C[C@H](CO)N1C[C@H](C)[C@@H](CN(C)Cc2ccc(C(F)(F)F)cc2)Oc2c(NS(C)(=O)=O)cccc2C1=O`, the activation is -0.122% (inactive).

On to `COc1ccc(S(=O)(=O)N(C)C[C@H]2Oc3ccc(NC(=O)Nc4ccc5c(c4)OCO5)cc3CC(=O)N([C@H](C)CO)C[C@@H]2C)cc1`, for which the activation is 0.086% (inactive).

As to `C[C@@H]1CN([C@H](C)CO)C(=O)c2cccc(NS(C)(=O)=O)c2O[C@H]1CN(C)Cc1ccncc1`, the activation is 1.77% (inactive).

With `C[C@@H]1CN([C@@H](C)CO)C(=O)Cc2cc(NC(=O)Cc3cn(C)c4ccccc34)ccc2O[C@H]1CN(C)Cc1ccc(C(F)(F)F)cc1`, the activation was 1.99% (inactive).

Take `Cc1nc(N2CCN(c3ccccn3)CC2)c2c(C)c(C(=O)Nc3ccc(F)cc3Cl)sc2n1`: the activation was -0.158% (inactive).

Take `C[C@H](CO)N1C[C@H](C)[C@H](CN(C)Cc2ccc(Cl)c(Cl)c2)Oc2c(NC(=O)CCCCCC(=O)Nc3ccccc3N)cccc2C1=O`: the activation was 0.173% (inactive).

Turning to `C[C@@H]1CN([C@H](C)CO)C(=O)Cc2cc(NC(=O)c3ccncc3)ccc2O[C@H]1CN(C)S(C)(=O)=O`, the activation was -0.058% (inactive).

On to `C[C@@H]1CN([C@@H](C)CO)C(=O)c2cccc(NS(=O)(=O)c3cn(C)cn3)c2O[C@H]1CN(C)Cc1ccncc1`, for which the activation is -0.172% (inactive).

As for `CCn1c(CNc2ccc(Cl)cc2)nnc1SCC#N`, the activation was -0.124% (inactive).

As to `COc1ccc(C(=O)Nc2ccc3c(c2)OCCO3)cc1[N+](=O)[O-]`, the activation was 0.055% (inactive).

Take `Cc1noc(C)c1NC(=O)Nc1ccc2c(c1)CC(=O)N([C@H](C)CO)C[C@@H](C)[C@H](CN(C)C(=O)Nc1ccc(F)cc1)O2`: the activation was -0.18% (inactive).

Staying with this assay, now noted: HUVEC E-selectin immunostaining, at 21 µM (top of the series), percent of TNF-alpha response over vehicle.
As for `CC(C)NC(=O)Nc1ccc2c(c1)C(=O)N([C@@H](C)CO)C[C@@H](C)[C@H](CN(C)Cc1ccc(C(F)(F)F)cc1)O2`, the activation was 0.029% (inactive).

Regarding `COc1ccc(CN(C)C[C@H]2Oc3ccc(NC(=O)Nc4c(C)noc4C)cc3C(=O)N([C@@H](C)CO)C[C@H]2C)cc1`, the activation is 0.014% (inactive).

Consider `C[C@H](CO)N1C[C@H](C)[C@H](CN(C)S(=O)(=O)c2ccc(Cl)cc2)Oc2ccc(NC(=O)Nc3ccc(F)cc3)cc2CC1=O`, for which the activation was 0.805% (inactive).

As to `C[C@H]1CN([C@@H](C)CO)C(=O)Cc2cc(NS(C)(=O)=O)ccc2O[C@@H]1CN(C)Cc1ccc(Oc2ccccc2)cc1`, the activation was 4.65% (inactive).

On to `C[C@@H]1CN([C@@H](C)CO)C(=O)c2cc(NS(=O)(=O)c3cn(C)cn3)ccc2O[C@H]1CN(C)C(=O)Nc1ccc(F)cc1`, for which the activation was 0.066% (inactive).
